{
  "source": "patent US11519922B2",
  "about": "“Methods for identifying risk of chemotherapy-induced cardiotoxicity and targeted medical intervention” (Detroit R&D, Inc., priority 2018, dated 2022)",
  "assay_type_in_all_cases": "cell-based",
  "key": {"H9c2 rat cardiomyocytes [1]": {"test_system": "H9c2 rat cardiomyocytes", "assay": "Cell hypertrophy assay (cell surface area, ImageJ)", "conditions": "1 μM DOX 2 hr", "method": "Cells were treated for 2 hr with media containing 1 μM DOX, washed and kept for 2, 6 and 24 hr in media without DOX. Cell sizes (cell surface area) were measured using image J software. Results expressed as mean±SD (n=6-44);\nIncreased cell surface area (hypertrophy) was found at 6 hr and 24 hr after DOX treatment (p<0.05) whereas no changes were observed after 2 hr (˜100 cells measured/group) (FIG. 2).\nFor cell hypertrophy assay, rat H9c2 cells grown overnight in a plate containing a glass cover slip were fixed at 2, 6 and 24 hr after 2 hr 1 μM DOX treatment and stained with hematoxylin and eosin and images were taken using a using a Zeiss Axiovert microscope. ImageJ software was used to measure the surface area of the cells."}, "H9c2 rat cardiomyocytes [2]": {"test_system": "H9c2 rat cardiomyocytes", "assay": "BNP mRNA levels in cells by qRT-PCR", "conditions": "1 μM DOX 2 hr, normalized by β-actin mRNA", "method": "(§1) FIGS. 1A and 1B show the effect of doxorubicin (DOX) on H9c2 rat cardiomyocytes. Cells were treated for 2 hr with media containing 1 μM DOX, washed and kept for 2, 6 and 24 hr in media without DOX. BNP mRNA levels in H9c2 cells were assessed by qRT-PCR (A) and cell media was collected and extracted with ethyl acetate for 14,15-DHET analyses using ELISA kit (Detroit R&D) (B). *p<0.05;\nNormalized BNP levels were decreased 6 hr and 24 hr after 2 hr of DOX treatment (p<0.05) (FIG. 1A) when cardiomyocyte hypertrophy occurred ([…]).\nBNP mRNA was assessed in rat H9c2 cells. […] Results were normalized using β-actin mRNA levels using a rat specific primer (13). Our results have shown that BNP levels were decreased 6 and 24 hr after 2 hr of DOX treatment (FIG. 1A) when cell hypertrophy was detected (FIG. 2)."}, "H9c2 rat cardiomyocytes [3]": {"test_system": "H9c2 rat cardiomyocytes", "assay": "14,15-DHET in cell media by ELISA", "conditions": "1 μM DOX 2 hr", "method": "as §1\nH9c2 cardiomyocytes were treated for 2 hr with and without 1 μM DOX. Levels of 14,15-DHET in cell media increased ˜3-fold (p<0.05) after a 2 hr recovery period prior to detection of cellular hypertrophy at 6 hr and 24 hr recovery periods.\nLevels of 14,15-DHET in cardiomyocyte (H9c2 cell) media were assessed by the Detroit R&D 14,15-DHET ELISA. Media, 2 ml, was extracted with 2 ml […]. and levels of 14,15-DHET increased after 2 hr, 6 hr and 24 hr following 2 hr DOX treatment (2 hr, 6 hr and 24 hr recovery) (FIG. 1B)."}, "H9c2 rat cardiomyocytes [4]": {"test_system": "H9c2 rat cardiomyocytes", "assay": "MTT cell viability assay", "conditions": "1 μM DOX 2 hr, then fresh media 24 hr; compared to untreated control cells", "method": "Cell viability was determined using the 3-[4,5-dimethylthiazol-2-yl]-2,5-diphenyltetrazolium bromide (MTT) assay (13) for cells incubated with and without 1 μM of DOX in media for 2 hr followed by fresh media for another 24 hours. The DOX treated cells maintained more than 90% cell viability compared to untreated control cells.\nRat H9c2 cell line was purchased from American Type Culture Collection (Manassas, Va.) and cultured on polystyrene culture plates in a humidified incubator at 37° C. in an atmosphere of 5% CO2 and 95% air. The H9c2 cells were grown in high glucose DMEM supplemented with 4.5 g/l glucose, 0.15% sodium bicarbonate, 0.11% sodium pyruvate, 10% fetal bovine serum, […], 100 IU/ml penicillin and 10 μg/ml streptomycin. When cells reached 80-90% confluency, media was replaced with media containing 1 μM DOX (Sigma) dissolved in DMSO. Cells were treated for 2 hr and collected immediately (0 hr) or washed and kept for 2, 6 and 24 hr in media without DOX.\nThe effect of DOX on cell viability was determined by 3-[4,5-dimethylthiazol-2-yl]-2,5-diphenyltetrazolium bromide (MTT) assay (13)."}},
  "note": "Entries after “also recorded” stand apart in the source; their conditions may differ.",
  "data": [
    {"smiles": "COc1cccc2c1C(=O)c1c(O)c3c(c(O)c1C2=O)C[C@@](O)(C(=O)CO)C[C@@H]3O[C@H]1C[C@H](N)[C@H](O)[C@H](C)O1", "note": "[DOX, doxorubicin]", "values": [
      {"measurement": "cell surface area (hypertrophy)", "setting": "H9c2 rat cardiomyocytes [1]; 2 hr recovery", "result": "no changes"},
      {"measurement": "cell surface area (hypertrophy)", "setting": "H9c2 rat cardiomyocytes [1]; 6 hr and 24 hr recovery", "result": "increased"},
      {"measurement": "increase of BNP mRNA", "setting": "H9c2 rat cardiomyocytes [2]; 2 hr recovery", "result": "~4", "unit": "fold"},
      {"measurement": "BNP mRNA levels", "setting": "H9c2 rat cardiomyocytes [2]; 6 hr and 24 hr recovery", "result": "decreased; also recorded: lower than control"},
      {"measurement": "14,15-DHET levels in cell media", "setting": "H9c2 rat cardiomyocytes [3]; 6 and 24 hr recovery", "result": "remained elevated; also recorded: increased"},
      {"measurement": "increase of 14,15-DHET in cell media", "setting": "H9c2 rat cardiomyocytes [3]; 2 hr recovery", "result": "~3", "unit": "fold"},
      {"measurement": "cell viability", "setting": "H9c2 rat cardiomyocytes [4]", "result": "more than 90%"}
    ]}
  ]
}
